# Values of other authors, collected in US20210135109A1, “ACCELERATED THERMAL CROSSLINKING OF PVDF-HFP VIA ADDITION OF ORGANIC BASES, AND THE USAGE OF CROSSLINKED PVDF-HFP AS GATE DIELECTRIC MATERIAL FOR OTFT DEVICES” (priority 2017, published 2021).
# Conditions: water (measured in water unless otherwise specified)
compound,measurement,value
"NCCCCCCN [HMDA, Hexamethylenediamine]","pKa (25° C., 1 atm)",10.92 ± 0.10
